Data taken from paper PMC8868346, “Novel Series of Dual NRF2 Inducers and Selective MAO-B Inhibitors for the Treatment of Parkinson’s Disease” (Antioxidants, 2022).
Read-outs that look alike come from different tables or passages of the source.

Tests used:
hrMAO-A = biological target: T1, hrMAO-A (Homo sapiens, UniProt P21397); test: Inhibition of monoamine oxidase A (Amplex UltraRed, tyramine); assay type: biochemical
T1 construct: purchased Sigma–Aldrich
T1 sequence (P21397 1-527): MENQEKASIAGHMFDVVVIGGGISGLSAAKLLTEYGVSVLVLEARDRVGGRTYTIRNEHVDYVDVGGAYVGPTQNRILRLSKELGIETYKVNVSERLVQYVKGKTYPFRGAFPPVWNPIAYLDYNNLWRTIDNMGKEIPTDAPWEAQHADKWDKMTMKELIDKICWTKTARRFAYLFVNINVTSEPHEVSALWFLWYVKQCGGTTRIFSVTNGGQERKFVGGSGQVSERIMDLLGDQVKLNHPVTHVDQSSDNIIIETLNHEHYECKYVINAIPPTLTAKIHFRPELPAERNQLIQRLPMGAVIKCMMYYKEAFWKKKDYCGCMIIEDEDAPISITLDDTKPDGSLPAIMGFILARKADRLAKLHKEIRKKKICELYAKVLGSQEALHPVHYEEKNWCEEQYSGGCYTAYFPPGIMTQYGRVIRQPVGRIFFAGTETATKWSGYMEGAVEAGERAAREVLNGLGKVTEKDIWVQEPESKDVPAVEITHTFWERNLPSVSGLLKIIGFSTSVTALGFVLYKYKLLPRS

[1] = Oxygen radical absorbance capacity (ORAC) assay; conditions: Trolox equivalents; AAPH, fluorescein
Procedure: The ORAC test was performed to evaluate the oxygen free radical scavenger capacity of the compounds. […] Compounds at desired concentrations (0.03, 0.1, 0.3, 1, 3, and 10 µM) were diluted in phosphate-buffered saline (PBS; 10 mM, pH 7.4) at 37 °C and placed in a 96 black flat bottom well plate. […] A fluorescence measurement was done first to determine the basal signal. Then, 25 µL of 2, 2′-azobis-amidinopropane dihydrochloride (AAPH) (12 mM final concentration) was quickly added. All samples were measured in duplicates in three different experiments. […] Results were expressed in terms of Trolox equivalents (T.eq.), obtained by plotting net AUC versus compound concentration, then performing linear regression and normalizing slopes of the compounds considering Trolox as reference.

[2] = system: nitrite production in mixed primary glial cultures; test: Nitrite production in LPS stimulated primary mixed glial cultures (Griess); assay type: cell-based; conditions: Rattus norvegicus; 24 h pre-treatment, LPS 1 µg/mL 18 h; read-out: EC50 Nitrite Reduction
Procedure: (§1) Cells were cultured for 7–10 days before treatment.
(§2) Primary glial cells were pre-treated with compounds at the desired concentration for 24 h. Then, treatments were removed and glial cells were incubated with lipopolysaccharide (LPS, 1 μg/mL; Sigma–Aldrich, Spain) in the presence of each compound at the desired concentration for 18 h. Nitrite production was then assessed by modified Griess assay. Briefly, 150 µL of each sample was mixed with 75 µL of 4,4′-diamino-diphenylsulfone (Dapsone) and 75 µL of N-(1-naphthyl)ethylenediamine (Neda). The mixture was incubated at room temperature for 5 min. […] Data were normalized to basal conditions, setting this value as 100% of nitrite production. EC50 values were calculated from dose–response curves obtained from representing percentage of nitrites reduction vs. compound concentration.

IL-1β = IL-1β levels by ELISA in LPS stimulated primary mixed glial cultures; assay type: cell-based, rat; conditions: compound 10 μM; LPS 1 µg/mL 18 h
Procedure: as §1, §2
Supernatants obtained from mixed primary glial cell cultures were used to determine IL-1β levels by quantitative ELISA kits (Preprotech, R&D Systems-bioNova, Madrid, Spain) following the manufacturer’s instructions. Commercial solution of IL-1β was used to generate a standard curve for sample quantification. Absorbance was measured in a microplate reader SPECTROstar Nano (BMG Labtech) at 405 with 650 nm correction.

SH-SY5Y cells [3] = test: Neuroprotection in SH-SY5Y against rotenone/oligomycin A (MTT); assay type: cell-based, human; conditions: compound 0.1 µM, 24 h pre- and 24 h co-incubation
Procedure: (§3) Cells were seeded at a density of 60,000 cells/well in 96-well transparent plates for 24 h. Then cells were pre-incubated with the corresponding compound at 0.1 μM. After 24 h, the medium was removed and replaced with 1% (v/v) FBS media containing the corresponding compound at 0.1 µM and the selected toxic stimuli, namely a mixture of rotenone and oligomycin A (R/O; 30/10 μM, respectively; Sigma–Aldrich, Spain) or 6-hydroxydopamine (100 µM; Sigma–Aldrich, Spain). […].

SH-SY5Y cells [4] = test: Neuroprotection in SH-SY5Y against 6-hydroxydopamine (MTT); assay type: cell-based, human; conditions: 6-OHDA 100 µM; compound 0.1 µM, 24 h pre- and 24 h co-incubation
Procedure: as §3

AREc32 = conditions: MTT reduction
Procedure: AREc32 cells, shared by CR Wolf, were grown in Dulbecco’s modified Eagle medium (DMEM) with GlutaMAX (Gibco, Invitrogen, Madrid, Spain), supplemented with 10% (v/v) filtrated fetal bovine serum (FBS; Gibco, Invitrogen, Madrid, Spain), 1% of antibiotics penicillin-streptomycin, and geneticin (0.8 mg/mL G418; Gibco, Invitrogen, Madrid, Spain). […] They were recovered by centrifugation at 800 rpm for 10 min. Cells were used from the third to twelfth passage.
(§4) Basal absorbance was set to 100% and results were normalized to basal conditions.
(§5) Cytotoxicity. LD50 values in several cell cultures employed
(§6) Table S2. Cytotoxicity elicited by 10-18 compounds in SH-SY5Y, AREc32 and mixed pr imary glial cultures. Viability was measured as MTT reduction in presence of increasing concentrations of der ivatives. LD50 values were calcula ted from dose-response curves. Data are expr essed as mean ± SEM of at least 3 independent experiments.
(§7) 1.3. PAMPA control compounds (BBB permeability)
(§8) Table S3. Pr ediction of the BBB passive permeability of control compounds

[5] = system: Mixed primary glial cultures; test: Cytotoxicity in mixed primary glial cultures (MTT); conditions: MTT reduction
Procedure: Mixed primary glial cultures were obtained from cerebral cortex of 2–5-day-old Sprague–Dawley rats. Blood vessels and meninges were first removed in Hank’s balanced salt solution (HBSS) and then forebrains were dissociated in DMEM/F12 medium. After mechanical dissociation, filtering, and centrifugation at 800 rpm for 10 min, cells were plated at a density of 30,000 cells/well in DMEM/F12 medium with 20% (v/v) FBS and 1% penicillin/streptomycin (10,000 units). […] After 5 days, medium was substituted by DMEM/F12 medium with 10% (v/v) FBS. Cells were cultured for 7–10 days before treatment.
as §4, §5, §6, §7, §8

[6] = Blood–brain barrier permeation assay (PAMPA); conditions: BBB permeability class from Pe
[7] = 30 min pre-incubation, 37 °C, read-out: IC50 MAO-A

SMILES	IC50 (hrMAO-A) [µM]	ORAC (T. eq.) [1] [T. eq.]	EC50 [2] [µM]	IL-1β Levels % Reduction (10 μM) (IL-1β) [%]	R/O (30/10 µM) Protection (%) (SH-SY5Y cells [3])	6-OHDA Protection (%) (SH-SY5Y cells [4])	LD50 (µM) AREc32 (AREc32) [µM]	LD50 (µM) Mixed primary glial cultures [5] [µM]	PAMPA Prediction [6]	IC50 (hrMAO-A; [7]) [µM]
C#CCNCCc1c[nH]c2ccc(OC)cc12 [Compound 10, N-(2-(5-Methoxy-1H-indol-3-yl)ethyl)prop-2-yn-1-amine]	0.826 ± 0.11	2.47 ± 0.13	16.2 ± 2.5	68.4 ± 4.9	44.6	83.5	> 30	> 30	CNS + (CNS + (high BBB permeability): Pe (10^−6 cm s^−1) > 4.0)	
C#CCN(CC#C)CCc1c[nH]c2ccc(OC)cc12 [Compound 13, N-(2-(5-Methoxy-1H-indol-3-yl)ethyl)-N-(prop-2-yn-1-yl)prop-2-yn-1-amine]	> 100	2.09 ± 0.11	12.6 ± 0.53	67.4 ± 5.80	42.7	87.4	> 30	> 30	CNS + (CNS + (high BBB permeability): Pe (10^−6 cm s^−1) > 4.0)	
C#CCN(CC#C)CCc1c[nH]c2ccc(OC(=O)C=Cc3ccccc3)cc12 [Compound 14, 3-(2-(Di(prop-2-yn-1-yl)amino)ethyl)-1H-indol-5-yl Cinnamate]		1.98 ± 0.15	19.4 ± 1.4	41.1 ± 1.7	53.3	71.7	> 30	> 30	CNS + (CNS + (high BBB permeability): Pe (10^−6 cm s^−1) > 4.0)	56.6 ± 6.3
C#CCN(CC#C)CCc1c[nH]c2ccc(OC(=O)/C=C/c3ccc(C)cc3)cc12 [Compound 15, 3-(2-(Di(prop-2-yn-1-yl)amino)ethyl)-1H-indol-5-yl-(E)-3-(p-tolyl) Acrylate]		1.74 ± 0.10	22.9 ± 3.3	60.5 ± 3.50	36.4	41.5	> 30	> 30	CNS + (CNS + (high BBB permeability): Pe (10^−6 cm s^−1) > 4.0)	> 100
